Earlier results in patent US7968712B2, “Process for the resolution of zopiclone and intermediate compounds” (Esteve Quimica, S.A., priority 2007, dated 2011).

Experiments:
[1] = compared with racemic zopiclone
[2] = compared with racemic zopiclone; remark: listed apart in the source

SMILES: CN1CCN(C(=O)O[C@@H]2c3nccnc3C(=O)N2c2ccc(Cl)cn2)CC1 (single isomer, unassigned) [laevorotatory isomer]
- activity relative to the racemate [1]: almost inactive
- toxicity relative to the racemate [2]: more toxic than the racemate

SMILES: CN1CCN(C(=O)O[C@H]2c3nccnc3C(=O)N2c2ccc(Cl)cn2)CC1 [dextrorotatory enantiomer, eszopiclone]
- toxicity relative to the racemate [2]: lower toxicity than that of the racemate
